{
  "source": "patent US10351575B2",
  "about": "“Bicyclic urea, thiourea, guanidine and cyanoguanidine compounds useful for the treatment of pain” (Array BioPharma Inc., priority 2012, dated 2019)",
  "data": [
    {"target": "His-tagged recombinant human TrkA (Homo sapiens (Human), UniProt P04629)", "sequence (P04629 440-796)": "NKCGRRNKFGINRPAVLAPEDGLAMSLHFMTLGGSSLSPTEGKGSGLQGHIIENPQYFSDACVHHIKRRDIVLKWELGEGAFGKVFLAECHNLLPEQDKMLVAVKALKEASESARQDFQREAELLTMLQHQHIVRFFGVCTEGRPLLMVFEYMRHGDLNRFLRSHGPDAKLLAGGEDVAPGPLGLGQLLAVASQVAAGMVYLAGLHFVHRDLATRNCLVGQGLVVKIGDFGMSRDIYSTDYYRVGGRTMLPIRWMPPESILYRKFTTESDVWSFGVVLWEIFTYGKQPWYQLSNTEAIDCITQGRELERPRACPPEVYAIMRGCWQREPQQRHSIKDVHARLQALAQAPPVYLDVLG", "experiment": "TrkA LanthaScreen Eu Kinase Binding Assay", "settings": "averaged IC50; TR-FRET binding, 60 min, 22° C.; read-out: TrkA Enzyme IC50", "in_short": "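Three-fold compound dilutions (2% DMSO final) were incubated 60 min at 22° C. with 5 nM His-TrkA cytoplasmic domain, tracer 236 (4 nM), biotinylated anti-His (2 nM) and europium streptavidin (2 nM) in MOPS pH 7.5 buffer. Emission ratio 665/615 gave percent of control; four-parameter fit yielded IC50.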", "units": {"IC50": "µM"}, "values": [
      {"smiles": "CCOc1nn(-c2ccccc2)c(NC(=O)N[C@H]2c3ccccc3C[C@@H]2OCCOC)c1C", "note": "[Example 49, 1-(3-ethoxy-4-methyl-1-phenyl-1H-pyrazol-5-yl)-3-((1S,2S)-2-(2-methoxyethoxy)-2,3-dihydro-1H-inden-1-yl)urea]", "IC50": "0.1 to 1"},
      {"smiles": "COc1ccc2c(c1)CCCC2NC(=O)Nc1c(C)c(-c2cnn(C)c2)nn1-c1ccccc1", "note": "(centres unmarked) [Example 5, 1-(1′,4-dimethyl-1-phenyl-1H,1′H-3,4′-bipyrazol-5-yl)-3-(6-methoxy-1,2,3,4-tetrahydronaphthalen-1-yl)urea]", "IC50": "0.1 to 1"},
      {"smiles": "CO[C@@H]1[C@@H](O)[C@H](NC(=O)Nc2c(C)c(-c3cnn(C)c3)nn2-c2ccccc2)c2ccccc2C1(C)C", "note": "[Example 157, 1-(1′,4-dimethyl-1-phenyl-1H,1′H-[3,4′-bipyrazol]-5-yl)-3-((r-1,t-2,c-3)-2-hydroxy-3-methoxy-4,4-dimethyl-1,2,3,4-tetrahydronaphthalen-1-yl)urea]", "IC50": "< 0.1"},
      {"smiles": "CCOc1nn(-c2ccccc2)c(NC(=O)N[C@H]2CCc3ccccc32)c1C", "note": "[Example 54, (S)-1-(2,3-dihydro-1H-inden-1-yl)-3-(3-ethoxy-4-methyl-1-phenyl-1H-pyrazol-5-yl)urea]", "IC50": "0.1 to 1"},
      {"smiles": "Cc1ncc(-c2nn(-c3ccccc3)c(NC(=O)N[C@@H]3c4cc(Cl)ccc4C[C@H]3O)c2C)cn1", "note": "[Example 71, 1-((1,2-trans)-6-chloro-2-hydroxy-2,3-dihydro-1H-inden-1-yl)-3-(4-methyl-3-(2-methylpyrimidin-5-yl)-1-phenyl-1H-pyrazol-5-yl)urea]", "IC50": "< 0.1"},
      {"smiles": "Cn1nc(-c2ccccc2)cc1NC(=O)N[C@@H]1c2ccccc2C(C)(C)C[C@H]1O", "note": "[Example 145, 1-((1R,2R)-2-hydroxy-4,4-dimethyl-1,2,3,4-tetrahydronaphthalen-1-yl)-3-(1-methyl-3-phenyl-1H-pyrazol-5-yl)urea]", "IC50": "0.1 to 1"},
      {"smiles": "Cc1c(OCC2CCN(C)CC2)nn(-c2ccccc2)c1NC(=O)N[C@@H]1c2ccccc2C(C)(C)C[C@H]1O", "note": "(relative stereo) [Example 122, 1-(trans-2-hydroxy-4,4-dimethyl-1,2,3,4-tetrahydronaphthalen-1-yl)-3-(4-methyl-3-((1-methylpiperidin-4-yl)methoxy)-1-phenyl-1H-pyrazol-5-yl)urea]", "IC50": "< 0.1"},
      {"smiles": "O=C(Nc1c2c(nn1-c1ccccc1)CCC2)NC1CN(CC(F)(F)F)Cc2ccccc21", "note": "(centres unmarked) [Example 28, 1-(2-phenyl-2,4,5,6-tetrahydrocyclopenta[c]pyrazol-3-yl)-3-(2-(2,2,2-trifluoroethyl)-1,2,3,4-tetrahydroisoquinolin-4-yl)urea]", "IC50": "< 0.1"},
      {"smiles": "COCc1ccc2c(c1)C(NC(=O)Nc1c(C)c(-c3cn(C)cn3)nn1-c1ccccc1)CN(CC(F)(F)F)C2C", "note": "(centres unmarked) [Example 111, 1-(6-(methoxymethyl)-1-methyl-2-(2,2,2-trifluoroethyl)-1,2,3,4-tetrahydroisoquinolin-4-yl)-3-(4-methyl-3-(1-methyl-1H-imidazol-4-yl)-1-phenyl-1H-pyrazol-5-yl)urea]", "IC50": "< 0.1"},
      {"smiles": "COCCN1Cc2ccccc2C(NC(=O)Nc2c3c(nn2-c2ccccc2)CCC3)C1", "note": "(centres unmarked) [Example 23, 1-(2-(2-methoxyethyl)-1,2,3,4-tetrahydroisoquinolin-4-yl)-3-(2-phenyl-2,4,5,6-tetrahydrocyclopenta[c]pyrazol-3-yl)urea]", "IC50": "0.1 to 1"},
      {"smiles": "Cc1c(-c2ccc(=O)n(C)c2)nn(-c2ccccc2)c1NC(=O)NC1CCN(C)c2c(F)cc(Cl)cc21", "note": "(centres unmarked) [Example 44, 1-(6-chloro-8-fluoro-1-methyl-1,2,3,4-tetrahydroquinolin-4-yl)-3-(4-methyl-3-(1-methyl-6-oxo-1,6-dihydropyridin-3-yl)-1-phenyl-1H-pyrazol-5-yl)urea]", "IC50": "< 0.1"},
      {"smiles": "Cc1c(OC2CN3CCC2CC3)nn(-c2ccccc2)c1NC(=O)N[C@@H]1c2ccccc2C(C)(C)C[C@H]1O", "note": "(stereo partly drawn) [Example 132, 1-((1R,2R)-2-hydroxy-4,4-dimethyl-1,2,3,4-tetrahydronaphthalen-1-yl)-3-(4-methyl-1-phenyl-3-(quinuclidin-3-yloxy)-1H-pyrazol-5-yl)urea]", "IC50": "< 0.1"},
      {"smiles": "Cc1c(-c2cnn(C)c2)nn(-c2ccccc2)c1NC(=O)NC1CC2(CCC2)Oc2ccc(Br)cc21", "note": "(centres unmarked) [Example 34, 1-(6-bromospiro[chroman-2,1′-cyclobutan]-4-yl)-3-(1′,4-dimethyl-1-phenyl-1H,1′H-[3,4′-bipyrazol]-5-yl)urea]", "IC50": "< 0.1"},
      {"smiles": "Cc1c(OC[C@H]2CN(C(=O)OC(C)(C)C)CCO2)nn(-c2ccccc2)c1NC(=O)N[C@@H]1c2ccccc2C(C)(C)C[C@H]1O", "note": "[Example 143, (R)-tert-butyl 2-(((5-(3-(trans-2-hydroxy-4,4-dimethyl-1,2,3,4-tetrahydronaphthalen-1-yl)ureido)-4-methyl-1-phenyl-1H-pyrazol-3-yl)oxy)methyl)morpholine-4-carboxylate]", "IC50": "< 0.1"},
      {"smiles": "Cc1c(OCC2CCN(C)CC2)nn(-c2ccccc2)c1NC(=O)N[C@@H]1c2cc(F)c(F)cc2C(C)(C)C[C@H]1O", "note": "[Example 81, 1-((1,2-trans)-6,7-difluoro-2-hydroxy-4,4-dimethyl-1,2,3,4-tetrahydronaphthalen-1-yl)-3-(4-methyl-3-((1-methylpiperidin-4-yl)methoxy)-1-phenyl-1H-pyrazol-5-yl)urea]", "IC50": "< 0.1"},
      {"smiles": "Cc1ncc(-c2nn(-c3ccccc3)c(NC(=O)N[C@@H]3c4ccccc4CCC[C@H]3O)c2C)cn1", "note": "(relative stereo) [Example 127, 1-(trans-6-hydroxy-6,7,8,9-tetrahydro-5H-benzo[7]annulen-5-yl)-3-(4-methyl-3-(2-methylpyrimidin-5-yl)-1-phenyl-1H-pyrazol-5-yl)urea]", "IC50": "0.1 to 1"},
      {"smiles": "COc1nn(-c2ccccc2)c(NC(=O)N[C@@H]2c3ccccc3CC[C@@H]2O)c1C", "note": "[Example 135, 1-((1R,2S)-2-hydroxy-1,2,3,4-tetrahydronaphthalen-1-yl)-3-(3-methoxy-4-methyl-1-phenyl-1H-pyrazol-5-yl)urea]", "IC50": "1 to 3"},
      {"smiles": "CCOc1nn(-c2ccccc2)c(NC(=O)NC2CCc3ccccc32)c1C", "note": "(centres unmarked) [Example 53, 1-(2,3-dihydro-1H-inden-1-yl)-3-(3-ethoxy-4-methyl-1-phenyl-1H-pyrazol-5-yl)urea]", "IC50": "0.1 to 1"},
      {"smiles": "Cc1c(OC[C@H]2CNCCO2)nn(-c2ccccc2)c1NC(=O)N[C@@H]1c2ccccc2C(C)(C)C[C@H]1O", "note": "[Example 150, 1-((1R,2R)-2-hydroxy-4,4-dimethyl-1,2,3,4-tetrahydronaphthalen-1-yl)-3-(4-methyl-3-((R)-morpholin-2-ylmethoxy)-1-phenyl-1H-pyrazol-5-yl)urea]", "IC50": "< 0.1"},
      {"smiles": "CNC(=O)c1nn(-c2ccccc2)c(NC(=O)N[C@@H]2c3cc(F)ccc3C(C)(C)C[C@H]2O)c1C", "note": "[Example 91, 5-(3-((1,2-trans)-7-fluoro-2-hydroxy-4,4-dimethyl-1,2,3,4-tetrahydronaphthalen-1-yl)ureido)-N,4-dimethyl-1-phenyl-1H-pyrazole-3-carboxamide]", "IC50": "< 0.1"},
      {"smiles": "Cc1c(-c2cc(C)c(=O)n(C)c2)nn(-c2ccccc2)c1NC(=O)N[C@@H]1c2ccccc2C[C@H]1O", "note": "[Example 69, 1-(3-(1,5-dimethyl-6-oxo-1,6-dihydropyridin-3-yl)-4-methyl-1-phenyl-1H-pyrazol-5-yl)-3-((1R,2R)-2-hydroxy-2,3-dihydro-1H-inden-1-yl)urea]", "IC50": "< 0.1"},
      {"smiles": "COc1nn(-c2ccccc2)c(NC(=O)N[C@@H]2c3ccccc3OC3(CCC3)[C@H]2O)c1C", "note": "(relative stereo) [Example 159, 1-(trans-3-hydroxyspiro[chroman-2,1′-cyclobutan]-4-yl)-3-(3-methoxy-4-methyl-1-phenyl-1H-pyrazol-5-yl)urea]", "IC50": "< 0.1"},
      {"smiles": "COCc1ccc2c(c1)[C@@H](NC(=O)Nc1c(C)c(-c3cnn(C)c3)nn1-c1ccccc1)[C@H](O)CC2(C)C", "note": "(relative stereo) [Example 102, 1-(1′,4-dimethyl-1-phenyl-1H,1′H-[3,4′-bipyrazol]-5-yl)-3-(trans-2-hydroxy-7-(methoxymethyl)-4,4-dimethyl-1,2,3,4-tetrahydronaphthalen-1-yl)urea]", "IC50": "< 0.1"},
      {"smiles": "COc1nn(-c2ccccc2)c(NC(=O)N[C@@H]2c3ccccc3C3(CC3)[C@H]2O)c1C", "note": "(relative stereo) [Example 60, 1-(trans-2′-hydroxy-2′,3′-dihydrospiro[cyclopropane-1,1′-inden]-3-yl)-3-(3-methoxy-4-methyl-1-phenyl-1H-pyrazol-5-yl)urea]", "IC50": "< 0.1"},
      {"smiles": "COc1nn(-c2ccccc2)c(NC(=O)N[C@@H]2c3cc(F)c(F)cc3C3(CC3)[C@H]2O)c1C", "note": "(relative stereo) [Example 62, 1-(trans-5′,6′-difluoro-2′-hydroxy-2′,3′-dihydrospiro[cyclopropane-1,1′-inden]-3′-yl)-3-(3-methoxy-4-methyl-1-phenyl-1H-pyrazol-5-yl)urea]", "IC50": "< 0.1"},
      {"smiles": "CC(=O)N1CCc2ccccc2C(NC(=O)Nc2c(C)c(-c3cnn(C)c3)nn2-c2ccccc2)C1", "note": "(centres unmarked) [Example 19, 1-(3-acetyl-2,3,4,5-tetrahydro-1H-benzo[d]azepin-1-yl)-3-(1′,4-dimethyl-1-phenyl-1H,1′H-3,4′-bipyrazol-5-yl)urea]", "IC50": "0.1 to 1"},
      {"smiles": "Cc1c(OCCN2CCOCC2)nn(-c2ccccc2)c1NC(=O)N[C@@H]1c2ccccc2C(C)(C)C[C@H]1O", "note": "[Example 133, 1-((1R,2R)-2-hydroxy-4,4-dimethyl-1,2,3,4-tetrahydronaphthalen-1-yl)-3-(4-methyl-3-(2-morpholinoethoxy)-1-phenyl-1H-pyrazol-5-yl)urea]", "IC50": "< 0.1"},
      {"smiles": "CCOc1nn(-c2ccccc2)c(NC(=O)NC2CCOc3cc(F)ccc32)c1C", "note": "(centres unmarked) [Example 13, 1-(3-ethoxy-4-methyl-1-phenyl-1H-pyrazol-5-yl)-3-(7-fluorochroman-4-yl)urea]", "IC50": "0.1 to 1"},
      {"smiles": "O=C(Nc1c2c(nn1-c1ccccc1)CCC2)N[C@H]1CCCc2ccccc21", "note": "[Example 3, (S)-1-(2-phenyl-2,4,5,6-tetrahydrocyclopenta[c]pyrazol-3-yl)-3-(1,2,3,4-tetrahydronaphthalen-1-yl)urea]", "IC50": "< 0.1"}
    ]}
  ]
}
